Results on three compounds are retold here after patent US10647687B2, “Spiropyrazine derivatives as inhibitors of non-apoptotic regulated cell-death” (Helmholtz Zentrum München Deutsches Forschungszentrum für …, priority 2014, dated 2020).

Data set [1] concerns C57BL/6 mice. In words: Traumatic brain injury, controlled cortical impact model (Example C.5). Conditions: compared to vehicle control, 24 h after CCI, FIG. 4. The format is in vivo, mouse. How it is done: FIG. 4: Efficiency of a compound disclosed herein in an animal model of traumatic brain injury.
Briefly, to test such utility of compounds disclosed herein, male C57BL/6 mice are anesthetised prior to the induction of trauma. Core body temperature is maintained at 37° C. using a feedback-controlled heating pad connected to a rectal probe. To induce trauma, a craniotomy is prepared over the right parietal cortex. Controlled cortical impact (CCI) is delivered perpendicular to the surface of the brain with a custom-made CCI applicator for mice using the following parameters: 8 m/s velocity, 3 mm diameter, 1 mm brain displacement and 150 ms duration. Following CCI, the skull is closed by affixing the removed bone flap using veterinary-grade tissue glue (Vetbond, 3M, St. Paul, Minn.). Compounds are administered at 1 mg/Kg or 10 mg/Kg (dissolved in 40% PEG) 15 minutes after TBI induction and 40% PEG is included as vehicle control. The animals are recovered from anesthesia in an incubator heated to 33° C. Animals are sacrificed and the brain is removed 24 h after CCI and immediately frozen on crushed dry ice and stored at −80° C. […] The sections are stained with cresyl violet for quantifying the area of contused brain, and contusion volume is calculated and the effect of the compounds tested observed following analysis of such data.

Data set [2] concerns C57BL/6 mice. As to the kind of experiment: Liver ischemia-reperfusion injury model (Example C.1). The format is in vivo, mouse. Particulars: single i.p. dose 10 mg/Kg. How it is done: FIG. 2: Efficacy of a compound disclosed herein in an animal model of liver IRI. […] The “Sham” bar represents the data from control animals that were treated to the same protocol but without atraumatic clipping. Errors shown are SEM. Significant differences are seen between IRI+vehicle compared to IRI+Cmpd, as well as between IRI+vehicle compared to Sham+vehicle.
Briefly, to test such utility of compounds disclosed herein, ischemia is induced in the liver of 6-8 week old C57BL/6 mice (Charles River) by midline laparotomy whereby the blood supply to the left and median lobes of the liver is interrupted via atraumatic clipping for 90 min, followed by reperfusion for a period of 24 h. After reperfusion, but prior to final abdominal closure, animals are treated with a single i.p. dose of the compound to be tested (10 mg/Kg), or with vehicle (DMSO) as negative control. […] The “Sham” bar represents the data from control animals that were treated to the same protocol but without atraumatic clipping.

In data set [3] the test system is C57BL/6 mice. In words: Kidney ischemia-reperfusion injury model (Example C.2). Conditions: dose of both 1 and 10 mg/kg, compared to vehicle control, FIG. 3. The data set is classed as in vivo, mouse. The protocol: FIG. 3: Efficacy of a compound disclosed herein in an animal model of kidney IRI.
Briefly, to test such utility of compounds disclosed herein, ischemia is induced in the kidney of 6-8 week old C57BL/6 mice by interruption of the blood supply to the kidney via reversible clipping of the Arteria renalis for 30 min, followed by reperfusion for a period of 24 h. Mice are treated with compound (or vehicle control) generally as described in Example C.1 at 1 hour prior to and four hours after abdomal closure and once daily over a period of 14 days. Markers to be investigated for IRI of kidney include […] creatinine levels in the serum along with histopathological analysis.

Another data set has as its system SH-SY5Y cells. As to the kind of experiment: Specificity: TNF-alpha-induced apoptosis in SH-SY5Y cells (Example B.3). The data set is classed as cell-based, human. Conditions: compound 1 μM, TNF-alpha 10 ng/mL, FIG. 1. The protocol:
SH-SY5Y cells were propagated and seeded in 96-well plates, together with compound N-1, N-2, N-10 of Table 1-N (FIG. 1A), compound O/S-6 or O/S-3 of Table 1-O/S (FIG. 1B), or compound C-12, C-91, or C-205 of Table 1-C (FIG. 1C) (each 1 μM) and TNF-alpha was added (final concentration: 10 ng/mL) to induce apoptosis. The apoptosis and pan-caspase inhibitor z-vad (final concentration: 50 μM) and the necroptosis inhibitor Necrostatin-1 (Nec-1; final concentration: 5 μM) were used for comparison. Control wells were established with vehicle only (DMSO), with and without treatment with TNF-alpha to induce apoptosis. Cells were incubated, and cell survival was detected and quantified. Percentage cell survival after TNF-alpha-induced apoptosis is shown (error bars indicate standard deviation (SD)).
Briefly, SH-SY5Y cells were propagated and seeded in 96-well plates, together with the compound to be tested (1 μM), generally as described in Example B.1, except they were seeded at 1,000 cell/well and instead of BSO, TNF-alpha (Invitrogen) was added to a final concentration of 10 ng/mL to induce apoptosis. The apoptosis and pan-caspase inhibitor Z-VAD-fink (Enzo Life Science; final concentration 50 μM) and the necroptosis inhibitor Necrostatin-1 (Nec-1; Enzo Life Science; final concentration 5 μM) were used for comparison. Control wells were established with vehicle only (DMSO), with and without treatment with TNF-alpha to induce apoptosis. Cells were incubated, and cell survival was detected and quantified as described in Example B.1.

Data set [4] concerns human neuroblastoma cell line SH-SY5Y. In words: Inhibition of BSO-induced non-apoptotic cell death (SH-SY5Y/BSO, Example B.1). The format is cell-based. Conditions: BSO-induced non-apoptotic cell death, SH-SY5Y cells, 50 μM BSO, 72 hours. The text has this: L-Buthionine sulfoximine (BSO) is a well-known glutathione (GSH) depletory, which inhibits gamma-glutamyl-cysteine-synthetase, the enzyme catalyzing the rate-limiting step in GSH biosynthesis. The human neuroblastoma cell line SH-SY5Y is sensitive to BSO-induced intracellular glutathione depletion, which causes high levels of reactive oxygen species (ROS) and cellular stress mimicking cellular conditions following ischemia (cf., e.g., Yamada et al., Neurochem. Int. 59:1003-9 (2011)).
Compounds disclosed herein were evaluated for their ability to promote cell survival upon administration of a lethal dose of BSO to cell-culture medium. […] After incubation, cell survival was detected using the live/dead cell assay AquaBluer™ (MultiTarget Pharmaceuticals) and quantified using a fluorescence plate reader (excitation filter: 530-560 nm/emission filter: 590 nm) (SpectraMax M4; Molecular Devices). Fluorescence data so obtained was normalised to the percentage of surviving cells and IC50 values calculated using the GraphPad Prism (GraphPad Software, Inc) software package.

The test system of data set [5] is mouse hippocampal cell line (Ht22). As to the kind of experiment: Inhibition of glutamate-induced non-apoptotic cell death (Ht22/GLU, Example B.2). The data set is classed as cell-based. Conditions: HT-22, glutamate-induced non-apoptotic cell death, Ht22 cells, read-out: Ht22/GLU. An excerpt:
Glutamate toxicity is conferred on cells from the mouse hippocampal cell line (Ht22) by inhibition of the cysteine/glutamate antiporter, System xc-, leading to impaired cysteine uptake and subsequent GSH depletion. This model is frequently used for mimicking glutathione depletion following oxidative stress in stroke, brain trauma and other neurodegenerative diseases and cellular conditions following ischemia (for example: van Leyen et al, J. Neurochem. 92:824-30 (2005)).
Compounds disclosed herein were evaluated for their ability to promote cell survival upon administration of a lethal dose of glutamate (GLU) to the cell-culture medium.
Briefly, Ht22cells (ATCC or Invitrogen) were propagated DMEM supplemented with 10% FBS/1% Penicillin-Streptomycin, and then seeded onto 96-well plates at a concentration of 2,000 cells/well in 100 μL of MEDIA, simultaneously with glutamate (Sigma Aldrich) to a final concentration of 5 mM, together with increasing concentrations of the compound to be tested (0.5 pM to 100 μM), and the plates incubated at 37° C./5% CO2 for 72 hours. Compound dilutions were prepared from 10 mM stocks dissolved in DMSO and diluted in media. Cells treated with glutamate alone were used as negative control and alpha-tocopherol (Sigma Aldrich) was used as positive control. Compound concentrations were tested in triplicate. After incubation, cell survival was detected and quantified as described in Example B.1.

The nature of data set [6]: Cellular toxicity, Pfa1 cells without TAM (Example B.5). Conditions: mouse, cellular toxicity, read-out: TC50 (the source's name). The format is cell-based. The text has this: An estimate of the toxicity for compounds disclosed herein was obtained by using the same assay as described in Example B.4, but without the addition of TAM. […] Such TC50 values obtained for certain compounds disclosed herein, together with an approximate therapeutic window (estimated by dividing each TC50 by the corresponding IC50 determined from example B.4) are shown in Table 3 and Table 4.

In a further data set the test system is Pfa1 cells. As to the kind of experiment: Inhibition of non-apoptotic cell death after tamoxifen-induced GPx4 knockout (Pfa1/TAM, Example B.4). The format is cell-based, mouse. Conditions: Mus musculus, tamoxifen-induced GPx4 knockout, Pfa1 cells. An excerpt:
To combat high intracellular ROS levels, mammalian cells have evolved an intricate network of ROS scavenging in cells, in which the thioredoxin and glutathione (GSH) dependent systems prevail. […] Knockout of GPx4 in neurons causes massive neurodegeneration in cortical, cerebellar and hippocampal neurons underscoring the high relevance of ROS-induced cell death signaling in the brain. Briefly, immortalised fibroblasts from these mice were made to contain tamoxifen-inducible CreERT2, which catalyzes the functional ablation of both copies of GPx4 and resulting in a complete knockout of GPx4, a massive ROS burst, and cell death in cell culture. These cells (Pfa1 cells) were used to characterize compounds disclosed herein, whereby tamoxifen (TAM) was given on day 0 along with the compound under test, and 72 hours later cell survival was evaluated using AlamarBlue.

Regarding `Clc1cccc(CNC2=Nc3ccccc3NC23CCNCC3)c1` [N-2], in the data set with C57BL/6 mice [1], the “contusion volume in the brains of mice following traumatic brain injury” value is listed as “trend of a (non-significant) positive effect”. Also, in the data set on C57BL/6 mice [2] (liver IRI, compared to vehicle control, FIG. 2A), the “serum marker for liver cell damage GPT” value is “significant reduction”. Also, the “serum marker for liver cell damage GOT” value with C57BL/6 mice [2] (liver IRI, compared to vehicle control, FIG. 2B) is recorded as “significant reduction”. Further, in the data set with C57BL/6 mice [2] (FIG. 2), the “serum GPT and GOT, IRI+Cmpd compared to Sham+vehicle” value is recorded as “No significant difference”. In the data set with C57BL/6 mice [3], the “survival of mice suffering kidney-ischemic reperfusion injury” value was “Improved survival”. Besides, the “Percentage cell survival after TNF-alpha-induced apoptosis” value with SH-SY5Y cells was “Non-inhibition of apoptotic cell-death”.

Take `Clc1cccc(CNC2=Nc3ccccc3NC23CCCNCC3)c1` (centres unmarked) [N-185]: the values for the IC50 (in data set [4]; in data set [5]; in the data set on Pfa1 cells) were under 50 nM, under 500 nM and under 200 nM, respectively. Further, in data set [6], the CC50 fell in the range of 1000 to 2000 nM.

For the compound `O=S1(=O)CCC2(CC1)Nc1ccccc1N=C2NCc1cccc(Cl)c1` [O/S-370], the IC50 in data set [4] is under 1000 nM; in data set [5] it was under 5000 nM; with Pfa1 cells it was under 2000 nM. The CC50 in data set [6] is 50000 to 100000 nM.
